Measured values as given in PMC10707934, “Design and Synthesis of Novel α-Methylchalcone Derivatives, Anti-Cervical Cancer Activity, and Reversal of Drug Resistance in HeLa/DDP Cells” (Molecules, 2023).

Tests used:
Format in all cases: cell-based, human
HeLa/DDP cells = assay: Rhodamine 123 accumulation in HeLa/DDP cells; details: 48 h, 0.5 and 1 μM
Description: The experimental procedure involved the addition of 1 drop of PBS to each well of a 12-well plate, followed by the placement of cell crawlers and removal of excess PBS. HeLa/DDP cells were then plated at a concentration of 1.5 × 10^5 cells/mL, with 1 mL per well, and cultured for a duration of 24 h. A blank control group was established alongside a positive group treated with verapamil (6 μM) and an intervention group treated with 3k (0.25, 0.5, and 1 μM) for a duration of 48 h. The drug-containing culture medium was subsequently washed with PBS three times, with each wash lasting 5 min. The Rh123 master mix was diluted with culture medium to create a 20 μM Rh123 buffer, which was subsequently incubated at a temperature of 37 °C for a duration of 1 h. Following this incubation period, the Rh123 buffer was removed, and the cells were subjected to three consecutive washes with PBS, each lasting for 10 min. Subsequently, a fixation process was conducted using 4% paraformaldehyde at a volume of 1 mL per well, with a duration of 20 min. […] Subsequently, the side containing cells was affixed onto the liquid and made ready for measurement. The cells were then examined using a fluorescence microscope (Leica, Microsystems CMS GmbH, GER) equipped with a fluorescein filter, and the fluorescence intensity of each distinct group was assessed.

P-gp = assay: Western blot, P-gp expression in HeLa/DDP cells; details: 48 h, 0.25, 0.5, or 1 μM
Bax = assay: Western blot, Bax expression in HeLa/DDP cells; details: 24 h, 5 and 10 μM
Description: HeLa cells were cultured in 60 mm Petri dishes at a density of 1.0 × 10^6 cells per dish and treated with 0.1% DMSO (vehicle), positive control chalcone (20 μM), and different concentrations of compound 3k (2.5, 5, and 10 μM), respectively. Following a 24 and 48 h incubation period, the cells were harvested via centrifugation and subsequently washed twice with PBS that had been chilled to 0 °C. Next, the cells were homogenized using RIPA lysis buffer (Solarbio, Beijing, China) and supplemented with 1% PMSF (MP Biomedicals, 0754-25G, CAS:329-98-6, Santa Ana, CA, USA) and 1% mixed phosphatase inhibitor (Solarbio, Beijing, China). […]
Subsequently, the protein concentrations were determined utilizing a BCA Protein Assay Kit (Solarbio, China). An equivalent quantity of the proteins (12 μg) was fractionated via 8–12% sodium dodecyl sulfate–polyacrylamide gel electrophoresis (SDS-PAGE) and transferred onto nitrocellulose membranes (Amersham Biosciences, Amersham, UK). […] The blots were subsequently visualized using enhanced chemiluminescence (Biosharp, Shanghai, China) and detected utilizing a PE 0723 imager (ProteinSimple, Silicon Valley, CA, USA). Each experiment was conducted in triplicate at minimum and analyzed employing Image J software (V1.8.0.112). β-actin(ab198991) rabbit mAb, goat anti-rabbit IgG (H + L) HRP—#S0001 (Affinity). […]

[1] = system: α-tubulin, β-tubulin in HeLa/DDP cells; assay: Immunofluorescence assay of microtubules, HeLa/DDP; details: 24 h, 3k 1, 2, and 4 μM, paclitaxel 2.0 μM
Description: The cells were then fixed by adding 400 μL of 4% paraformaldehyde to each well and incubating for 30 min. 0.1% Triton was added at a volume of 400 μL per well and allowed to incubate for 10 min. Following this, goat serum (10%) was added at 400 μL per well and incubated for 40 min. Primary antibodies (α-tubulin, β-tubulin) were then incubated overnight at a temperature of 4 °C. Subsequently, secondary antibodies (α-mouse, β-rabbit) were incubated for 1.5 h. DAPI staining was performed at 400 μL per well for 5 min, followed by a wash with PBS. Cell climbing tablets were removed and inverted onto slides with sealer. Photographs were captured using a fluorescent inverted microscope.

In the case of `COc1ccc(/C=C(\C)C(=O)c2ccc(Cl)c(Cl)c2)cc1OC` [Compound 3k, (E)-1-(3,4-Dichlorophenyl)-3-(3,4-dimethoxyphenyl)-2-methylprop-2-en-1-one], the “average fluorescence intensity emitted by rhodamine 123” value (HeLa/DDP cells) is reported as “notably greater than that of the control group”, the “expression of P-gp” value (P-gp) is reported as “remained unchanged” and the “Bax expression versus control group” value (Bax) is reported as “significant increase”. The “microtubule immunofluorescence (α green, β red)” value [1] was “attenuation of the green and red fluorescence of the enclosed cells”.
